Data as given in paper PMC2139785 (The Journal of Cell Biology, 1997).

Biological target: p62^cplx-associated PI3-kinase (100-kD catalytic subunit)
Assay: PI3-kinase lipid kinase assay
Type: biochemical, Rattus norvegicus

COC[C@H]1OC(=O)c2coc3c2[C@@]1(C)C1=C(C3=O)[C@@H]2CCC(=O)[C@@]2(C)C[C@H]1OC(C)=O [wortmannin]
IC50: ~3.5 µM
